Assay [1] deals with 11b-HSD1 (Homo sapiens, UniProt P28845). The assay can be described thus: Enzymatic assay, 11b-HSD1 dependent conversion of cortisone into cortisol (reductase activity). The assay is classed as biochemical. The conditions noted are these: recombinant protein, 2 μM cortisone, 45 min at 37 C; read-out: [C1] HSD1-prot Reduct Score. On the procedure: The effects of compounds on 11b-HSD1 dependent conversion of cortisone into cortisol (reductase activity) was studied in a reaction mixture containing 30 mM Tris-HCl buffer pH 7.2, 180 μM NADPH, 1 mM EDTA, 2 μM cortisone, 1 μl drug and/or solvent and 11 μg recombinant protein in a final volume of 100 μl.
All incubations were performed for 45 min at 37 C in a water bath. The reaction was stopped by adding 100 μl acetonitrile containing 20 μg corticosterone as internal standard. After centrifugation, the product formation was analysed in the supernatant by HPLC on a Hypersyl BDS-C18 column using 0.05 mM ammonium acetate/methanol (50/50) as solvent. In all of the aforementioned assays, the drugs to be tested were taken from a stock solution and tested at a final concentration ranging from […] to 3.10^−9M. From the thus obtained dose response curves, the pIC50 value was calculated and scored as follows; Score 1=pIC50 value<5, Score 2=pIC50 value in the range of 5 to 6, Score 3=pIC50 value>6. (in this table NT stands for Not Tested).

Assay [2] deals with T1, 11b-HSD1 (Mus musculus, UniProt P50172).
T1 construct: Fibroblasts were differentiated into adipocytes; endogenous in cells; host or cells: differentiated 3T3-L1 cells (ATCC-CL-173)
Kind of assay: Cellular assay, 11b-HSD1 activity in differentiated 3T3-L1 cells. The conditions noted are these: 4 hour pre-incubation, read-out: [C2] HSD1 cellular 3T3-L1 Score. The assay is classed as cell-based. The procedure: The effects on 11b-HSD1 activity was measured in differentiated 3T3-L1 cells and rat hepatocytes.
Mouse fibroblast 3T3-L1 cells (ATCC-CL-173) were seeded at a density of 16500 cells/ml in 12 well plates and grown for 7 days in DMEM medium (supplemented with 10% heat inactivated foetal calf serum, 2 mM glutamine and 25 mg gentamycin) at 37 C in a humidified 5% CO2 atmosphere. Medium was refreshed twice a week. Fibroblasts were differentiated into adipocytes at 37 C in a 5% CO2 humidified atmosphere in growth medium containing 2 μg/ml insulin, 55 μg/ml IBMX and 39.2 μg/ml dexamethasone.
Following a 4 hour pre-incubation with test compound, 0.5 μCi ^3H-cortisone or dehydrocorticosterone, was added to the cultures. One hour later, the medium was extracted on Extrelut^3-columns with 15 ml diethyl ether and the extract was analysed by HPLC as described above.
(§1) As for the enzymatic assays, the compounds to be tested were taken from a stock solution and tested at a final concentration ranging from […] to 3.10^−9M. From the thus obtained dose response curves, the pIC50 value was calculated and scored as follows; Score 1=pIC50 value<5, Score 2=pIC50 value in the range of 5 to 6, Score 3=pIC50 value>6. Some of the thus obtained results are summarized in the table below (in this table NT stands for Not Tested).

For another assay, the target named is T2, 11b-HSD2 (Homo sapiens, UniProt P80365).
T2 sequence (P80365 1-405): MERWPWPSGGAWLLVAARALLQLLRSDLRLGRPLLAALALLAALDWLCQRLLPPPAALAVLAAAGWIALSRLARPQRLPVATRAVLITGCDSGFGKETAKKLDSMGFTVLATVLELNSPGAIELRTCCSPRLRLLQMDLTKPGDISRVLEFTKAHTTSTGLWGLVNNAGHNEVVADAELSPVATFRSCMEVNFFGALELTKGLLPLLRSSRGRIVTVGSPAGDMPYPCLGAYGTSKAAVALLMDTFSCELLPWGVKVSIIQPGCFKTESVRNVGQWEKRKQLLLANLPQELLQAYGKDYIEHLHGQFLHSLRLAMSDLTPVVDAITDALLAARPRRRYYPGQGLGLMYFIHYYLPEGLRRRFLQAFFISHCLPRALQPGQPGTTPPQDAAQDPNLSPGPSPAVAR
Kind of assay: Cellular assay, 11b-HSD2 activity in HepG2 cells. The assay is classed as cell-based. Further details: endogenous in cells; host or cells: HepG2 (ATCC HB-8065). Conditions: 4 hour pre-incubation, read-out: [C2] HSD2 cellular HepG2 Score. The procedure: The effects on 11b-HSD2 activity was studied in HepG2 and LCC-PK1-cells HepG2-cells (ATCC HB-8065) were seeded in 12 well plates at a density of 100,000 cells/ml and grown at 37 C in a humidified 5% CO2 atmosphere in MEM-Rega-3 medium supplemented with 10% heat inactivated foetal calf serum, 2 mM L-glutamine and sodium bicarbonate). Medium was refreshed twice a week.
Following a 4 hour pre-incubation with test compound, 0.5 μCi ^3H-cortisol or corticosterone, was added to the cultures. One hour later, the medium was extracted on Extrelut^3-columns with 15 ml diethyl ether and the extract was analysed by HPLC as described above.
as §1

Each structure is given as a SMILES string.

T1 sequence (P50172 whole entry): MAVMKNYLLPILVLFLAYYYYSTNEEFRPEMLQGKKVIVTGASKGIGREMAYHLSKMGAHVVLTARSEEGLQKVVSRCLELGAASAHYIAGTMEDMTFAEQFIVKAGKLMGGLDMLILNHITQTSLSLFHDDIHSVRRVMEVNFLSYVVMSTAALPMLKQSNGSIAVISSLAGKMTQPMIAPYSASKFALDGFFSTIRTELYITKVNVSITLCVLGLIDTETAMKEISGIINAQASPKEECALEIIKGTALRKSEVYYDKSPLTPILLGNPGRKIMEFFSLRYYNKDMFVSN
11b-HSD1 (Homo sapiens, UniProt P28845), sequence (P28845 whole entry): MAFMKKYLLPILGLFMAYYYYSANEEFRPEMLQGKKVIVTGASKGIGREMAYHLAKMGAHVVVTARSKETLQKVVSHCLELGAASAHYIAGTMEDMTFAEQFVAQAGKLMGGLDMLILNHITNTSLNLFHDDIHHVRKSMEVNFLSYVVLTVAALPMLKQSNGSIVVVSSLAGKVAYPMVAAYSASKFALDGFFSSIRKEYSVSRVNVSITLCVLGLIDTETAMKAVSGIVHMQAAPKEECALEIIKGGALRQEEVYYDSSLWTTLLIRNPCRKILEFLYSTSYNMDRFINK

For the molecule `Cc1ccccc1C[C@H]1CCN([C@@H](C)c2ccccc2)C1=O` [Compound 2], the IC50 on 11b-HSD1 [1] is 1 to 10 µM; at 11b-HSD1 [2], 1 to 10 µM; on 11b-HSD2, over 10 µM.

As to `Cc1ccc(C[C@@H]2CCN([C@@H](C)c3ccccc3)C2=O)cc1` [Compound 3], the IC50 on 11b-HSD1 [1] was under 1 µM; at 11b-HSD1 [2], 1 to 10 µM; at 11b-HSD2, over 10 µM.

On to `Cc1ccc(C[C@H]2CCN([C@@H](C)c3ccccc3)C2=O)cc1` [Compound 4], for which the results for the IC50 at 11b-HSD1 [1], on 11b-HSD1 [2] and on 11b-HSD2 were over 10 µM, 1 to 10 µM and over 10 µM, respectively.

On to `C[C@@H](c1ccccc1)N1CC[C@@H](Cc2ccccc2)C1=O` [Compound 5], for which the figures for the IC50 at 11b-HSD1 [1], on 11b-HSD1 [2] and at 11b-HSD2 were 1 to 10 µM, 1 to 10 µM and over 10 µM, respectively.

On to `COc1cc(C[C@H]2CCN([C@@H](C)c3ccccc3)C2=O)ccc1OCc1ccccc1` [Compound 122], for which the IC50 on 11b-HSD1 [1] and on 11b-HSD1 [2] was 1 to 10 µM each time.

On to `COc1ccccc1CC[C@@H]1CCN([C@@H](C)c2ccccc2)C1=O` [Compound 123], for which the IC50 on 11b-HSD1 [1] and on 11b-HSD1 [2] was 1 to 10 µM each time.

Take `COc1ccccc1CC[C@H]1CCN([C@@H](C)c2ccccc2)C1=O` [Compound 124]: the IC50 at 11b-HSD1 [1] and at 11b-HSD1 [2] was 1 to 10 µM throughout.

Turning to `COc1ccc(CC[C@@H]2CCN([C@@H](C)c3ccccc3)C2=O)cc1OC` [Compound 125], the IC50 at 11b-HSD1 [1] and on 11b-HSD1 [2] was over 10 µM each time.

As to `COc1ccc(CC[C@H]2CCN([C@@H](C)c3ccccc3)C2=O)cc1OC` [Compound 126], the IC50 at 11b-HSD1 [1] and at 11b-HSD1 [2] was over 10 µM each time.

On to `Cc1ccccc1CC[C@@H]1CCN([C@@H](C)c2ccccc2)C1=O` [Compound 127], for which the IC50 at 11b-HSD1 [1] and on 11b-HSD1 [2] was 1 to 10 µM in each case.

As for `Cc1ccccc1CC[C@H]1CCN([C@@H](C)c2ccccc2)C1=O` [Compound 128], the IC50 on 11b-HSD1 [1] and on 11b-HSD1 [2] was 1 to 10 µM each time.

Regarding `C[C@@H](c1ccccc1)N1CC[C@H](CCc2c(F)cccc2Cl)C1=O` [Compound 129], the IC50 at 11b-HSD1 [1] and at 11b-HSD1 [2] was 1 to 10 µM in each case.

As for `C[C@@H](c1ccccc1)N1CC[C@@H](CCc2ccc(N(C)C)cc2)C1=O` [Compound 130], the IC50 on 11b-HSD1 [1] is over 10 µM; at 11b-HSD1 [2], 1 to 10 µM.

For `C[C@@H](c1ccccc1)N1CC[C@H](CCc2ccc(N(C)C)cc2)C1=O` [Compound 131], the IC50 on 11b-HSD1 [1] is over 10 µM; at 11b-HSD1 [2], 1 to 10 µM.

As to `COc1ccc(CC[C@@H]2CCN([C@@H](C)c3ccccc3)C2=O)cc1` [Compound 132], the IC50 on 11b-HSD1 [1] and on 11b-HSD1 [2] was 1 to 10 µM each time.

Turning to `COc1ccc(CC[C@H]2CCN([C@@H](C)c3ccccc3)C2=O)cc1` [Compound 133], the IC50 on 11b-HSD1 [1] is over 10 µM; at 11b-HSD1 [2], 1 to 10 µM.

Take `C[C@@H](C[C@@H]1CCN([C@@H](C)c2ccccc2)C1=O)c1ccccc1` [Compound 134]: the IC50 on 11b-HSD1 [1] and on 11b-HSD1 [2] was under 1 µM throughout.

In the case of `C[C@@H](C[C@H]1CCN([C@@H](C)c2ccccc2)C1=O)c1ccccc1` [Compound 135], the values for the IC50 at 11b-HSD1 [1] and on 11b-HSD1 [2] were over 10 µM and under 1 µM, respectively.

For `C[C@H](C[C@@H]1CCN([C@@H](C)c2ccccc2)C1=O)c1ccccc1` [Compound 136], the IC50 on 11b-HSD1 [1] and on 11b-HSD1 [2] was 1 to 10 µM in each case.

For the molecule `C[C@H](C[C@H]1CCN([C@@H](C)c2ccccc2)C1=O)c1ccccc1` [Compound 137], the IC50 at 11b-HSD1 [1] and on 11b-HSD1 [2] was under 1 µM in each case.

On to `CC[C@H](C[C@@H]1CCN([C@@H](C)c2ccccc2)C1=O)c1ccccc1` [Compound 138], for which the IC50 at 11b-HSD1 [1] and on 11b-HSD1 [2] was 1 to 10 µM throughout.

`CC[C@@H](C[C@@H]1CCN([C@@H](C)c2ccccc2)C1=O)c1ccccc1` [Compound 139]: the IC50 on 11b-HSD1 [1] and on 11b-HSD1 [2] was under 1 µM in each case.

Take `CC[C@H](C[C@H]1CCN([C@@H](C)c2ccccc2)C1=O)c1ccccc1` [Compound 140]: the results for the IC50 at 11b-HSD1 [1] and on 11b-HSD1 [2] were over 10 µM and under 1 µM, respectively.

With `CC[C@@H](C[C@H]1CCN([C@@H](C)c2ccccc2)C1=O)c1ccccc1` [Compound 141], the IC50 at 11b-HSD1 [1] was under 1 µM; on 11b-HSD1 [2], over 10 µM.

As for `Cc1ccccc1C[C@]1(C)CCN([C@@H](C)c2ccccc2)C1=O` [Compound 142], the IC50 on 11b-HSD1 [1] is over 10 µM; at 11b-HSD1 [2], 1 to 10 µM.

With `Cc1ccccc1C[C@@]1(C)CCN([C@@H](C)c2ccccc2)C1=O` [Compound 143], the IC50 on 11b-HSD1 [1] is over 10 µM; at 11b-HSD1 [2] it was 1 to 10 µM.

As for `CC[C@@]1(Cc2ccccc2C)CCN([C@H](C)c2ccccc2)C1=O` [Compound 144], the IC50 at 11b-HSD1 [1] and at 11b-HSD1 [2] was over 10 µM in each case.

Regarding `CC[C@]1(Cc2ccccc2C)CCN([C@H](C)c2ccccc2)C1=O` [Compound 145], the IC50 on 11b-HSD1 [1] and at 11b-HSD1 [2] was over 10 µM throughout.

`C[C@@H](c1ccccc1)N1CC[C@H](Cc2ccc(F)cc2Cl)C1=O` [Compound 150]: the IC50 on 11b-HSD1 [1] and on 11b-HSD1 [2] was under 1 µM each time.

On to `C[C@@H](c1ccccc1)N1CC[C@@H](Cc2ccc(F)cc2Cl)C1=O` [Compound 151], for which the IC50 on 11b-HSD1 [1] and at 11b-HSD1 [2] was under 1 µM in each case.

`C[C@@H](c1ccccc1)N1CC[C@H](Cc2ccc3c(c2)OCO3)C1=O` [Compound 152]: the IC50 on 11b-HSD1 [1] was 1 to 10 µM; on 11b-HSD1 [2], under 1 µM.

On to `C[C@@H](c1ccccc1)N1CC[C@@H](Cc2ccc3c(c2)OCO3)C1=O` [Compound 153], for which the IC50 on 11b-HSD1 [1] and on 11b-HSD1 [2] was 1 to 10 µM throughout.

For the molecule `C[C@@H](c1ccccc1)N1CC[C@@H](Cc2cc3c(cc2Cl)OCO3)C1=O` [Compound 155], the IC50 on 11b-HSD1 [1] and at 11b-HSD1 [2] was under 1 µM in each case.

Regarding `CO[C@H](C[C@@H]1CCN([C@@H](C)c2ccccc2)C1=O)c1ccccc1` [Compound 156], the IC50 on 11b-HSD1 [1] and on 11b-HSD1 [2] was 1 to 10 µM in each case.

Regarding `CO[C@H](C[C@H]1CCN([C@@H](C)c2ccccc2)C1=O)c1ccccc1` [Compound 157], the IC50 at 11b-HSD1 [1] is 1 to 10 µM; at 11b-HSD1 [2] it was under 1 µM.

For `C[C@@H](c1ccccc1)[C@@H]1CCN([C@@H](C)c2ccccc2)C1=O` [Compound 158], the IC50 at 11b-HSD1 [1] and at 11b-HSD1 [2] was under 1 µM in each case.

With `C[C@H](c1ccccc1)[C@H]1CCN([C@@H](C)c2ccccc2)C1=O` [Compound 159], the IC50 on 11b-HSD1 [1] and on 11b-HSD1 [2] was under 1 µM in each case.

As to `C[C@@H](c1ccccc1)[C@H]1CCN([C@@H](C)c2ccccc2)C1=O` [Compound 160], the IC50 at 11b-HSD1 [1] was under 1 µM; on 11b-HSD1 [2], over 10 µM.

As to `C[C@H](c1ccccc1)[C@@H]1CCN([C@@H](C)c2ccccc2)C1=O` [Compound 161], the values for the IC50 at 11b-HSD1 [1] and at 11b-HSD1 [2] were 1 to 10 µM and over 10 µM, respectively.

With `COc1cc(CC2(Cc3ccc(OCc4ccccc4)c(OC)c3)CCN(CCc3ccccc3)C2=O)ccc1OCc1ccccc1` [Compound 164], the IC50 at 11b-HSD1 [1] and on 11b-HSD1 [2] was over 10 µM each time.
